Data reported in patent publication US20140135310A1, “SULPHONAMIDE DERIVATIVES OF ALICYCLIC AMINES FOR THE TREATMENT OF CENTRAL NERVOUS SYSTEM DISEASES” (Adamed Sp. z o.o., priority 2011, published 2014).

How the values were obtained:
[1] = target: dopaminergic receptors D2 (Homo sapiens, UniProt P14416); assay: Radioligand binding assay, dopaminergic D2 receptors; details: binding assay, test compound 1×10^−6 M
Excerpt: (§1) The specific ligand binding to the receptors is defined as the difference between the total binding and the non-specific binding determined in the presence of the excess of unlabelled ligand.
(§2) The results are expressed as a percent of control specific binding ((measured specific binding/control specific binding)×100) and as a percent inhibition of control specific binding (100−((measured specific binding/control specific binding)×100)) obtained in the presence of the test compounds. The specific ligand binding to the receptors is defined as the difference between the total binding and the nonspecific binding determined in the presence of an excess of unlabelled ligand. Scintillation counting was the method of detection of ligand binding. The IC50 values (concentration causing a half-maximal inhibition of control specific binding) were determined by non-linear regression analysis of the competition curves generated with mean replicate values using Hill equation curve fitting (Y=D+[(A−D)/(1+(C/C50)nH)], where Y=specific binding, D=minimum specific binding, A=maximum specific binding, C=compound concentration, C50=IC50, and nH=slope factor). This analysis was performed using a software developed at Cerep (Hill software) and validated by comparison with data generated by the commercial software SigmaPlot® 4.0 for Windows® (© 1997 by SPSS Inc.). The inhibition constants (Ki) were calculated using the Cheng Prusoff equation (Ki=IC50/(1+(L/KD)), where L=concentration of radioligand in the assay, and KD=affinity of the radioligand for the receptor). A scatchard plot was used to determine the Kd.
(§3) Experimental conditions for tests are given in Table 1, the results of tests for representative compounds are given in Tables 2a and 2b (receptors D2 and D3) and in Table 3 (receptors D4).

[2] = target: dopaminergic receptors D3 (Homo sapiens, UniProt P35462); assay: Radioligand binding assay, dopaminergic D3 receptors; details: test compound 1×10^−6 M
Excerpt: as §1, §2, §3

[3] = target: T1, 5-HT1A receptor (rat hippocampus) (Rattus norvegicus, UniProt P19327); assay: Radioligand binding assay, serotoninergic 5-HT1A receptors; details: binding assay result in %, Table 5a;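 note: test compound at 1 µM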
T1 construct: hippocampus; from tissue; host or cells: rat hippocampus
T1 sequence (P19327 1-422): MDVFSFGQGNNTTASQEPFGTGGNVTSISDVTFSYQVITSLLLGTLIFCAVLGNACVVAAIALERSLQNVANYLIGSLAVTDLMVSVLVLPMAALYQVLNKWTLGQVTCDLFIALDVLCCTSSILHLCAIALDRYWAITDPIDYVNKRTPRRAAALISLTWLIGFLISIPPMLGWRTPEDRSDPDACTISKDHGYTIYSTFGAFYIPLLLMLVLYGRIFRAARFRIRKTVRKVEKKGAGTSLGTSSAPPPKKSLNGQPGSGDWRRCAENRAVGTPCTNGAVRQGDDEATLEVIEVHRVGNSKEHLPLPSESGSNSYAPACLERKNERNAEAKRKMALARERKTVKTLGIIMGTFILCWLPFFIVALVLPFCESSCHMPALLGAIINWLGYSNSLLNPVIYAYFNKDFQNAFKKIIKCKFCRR
Excerpt: as §1, §2
(§4) Experimental conditions for tests are given in Table 4, and results of tests for representative compounds of the invention are given in Table 5a and 5b (receptors 5-HT1A, 5-HT2A, 5-HT6 and 5-HT7) and in Table 6 (receptors 5-HT2C).

5-HT2A receptor = target: T2, 5-HT2A receptor (Homo sapiens, UniProt P28223); assay: Radioligand binding assay, serotoninergic 5-HT2A receptors; details: binding assay result in %, Table 5a
T2 construct: purchased PerkinElmer
Excerpt: as §1, §2
5-HT2A: Bryan L. Roth. Assay Protocol Book. University of North Carolina At Chapel Hill. National Institute of Mental Health. Psychoactive Drug Screening Program. Available on-line at 31 Aug. 2008: http://pdsp.med.unc.edu/UNC-CH%20Protocol%20Book.pdf

5-HT6 receptor = target: T3, 5-HT6 receptor (Homo sapiens, UniProt P50406); assay: Radioligand binding assay, serotoninergic 5-HT6 receptors; details: binding assay result in %, Table 5a;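 note: test compound at 1 µM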
T3 construct: purchased PerkinElmer
Excerpt: as §1, §2, §4
5-HT6: Bryan L. Roth. Assay Protocol Book. University of North Carolina At Chapel Hill. National Institute of Mental Health. Psychoactive Drug Screening Program. Available on-line at 31 Aug. 2008: http://pdsp.med.unc.edu/UNC-CH %20Protocol%20Book.pdf

5-HT7 receptor = target: T4, 5-HT7 receptor (Homo sapiens, UniProt P34969); assay: Radioligand binding assay, serotoninergic 5-HT7 receptors; details: binding assay result in %, Table 5a;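 note: test compound at 1 µM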
T4 construct: purchased PerkinElmer
Excerpt: as §1, §2, §4
5-HT7: Bryan L. Roth. Assay Protocol Book. University of North Carolina At Chapel Hill. National Institute of Mental Health. Psychoactive Drug Screening Program. Available on-line at 31 Aug. 2008: http://pdsp.med.unc.edu/UNC-CH %20Protocol%20Book.pdf

[4] = target: T5, serotonin transporter (SERT) (Homo sapiens, UniProt P31645); assay: Radioligand binding assay, serotonin transporter (SERT); details: binding assay, test compound 1×10^−6 M
T5 construct: expressed in transfected cells; host or cells: CHO cells
Excerpt: as §1, §2
Experimental conditions for tests are given in Table 12, and results of tests for representative compounds are given in Tables 13a and 13b.

Chain of dopaminergic receptors D3 (P35462 whole entry): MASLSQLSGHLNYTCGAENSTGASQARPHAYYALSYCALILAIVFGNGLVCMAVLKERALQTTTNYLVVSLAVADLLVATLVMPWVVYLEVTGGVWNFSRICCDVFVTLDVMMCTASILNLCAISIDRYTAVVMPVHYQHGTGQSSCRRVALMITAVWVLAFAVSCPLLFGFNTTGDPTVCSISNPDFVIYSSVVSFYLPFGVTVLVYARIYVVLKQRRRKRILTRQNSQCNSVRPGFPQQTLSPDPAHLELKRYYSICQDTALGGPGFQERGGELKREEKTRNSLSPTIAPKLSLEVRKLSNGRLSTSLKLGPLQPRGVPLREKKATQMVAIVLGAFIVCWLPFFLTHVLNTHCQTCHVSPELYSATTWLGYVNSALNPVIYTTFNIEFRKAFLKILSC
T3 sequence (P50406 whole entry): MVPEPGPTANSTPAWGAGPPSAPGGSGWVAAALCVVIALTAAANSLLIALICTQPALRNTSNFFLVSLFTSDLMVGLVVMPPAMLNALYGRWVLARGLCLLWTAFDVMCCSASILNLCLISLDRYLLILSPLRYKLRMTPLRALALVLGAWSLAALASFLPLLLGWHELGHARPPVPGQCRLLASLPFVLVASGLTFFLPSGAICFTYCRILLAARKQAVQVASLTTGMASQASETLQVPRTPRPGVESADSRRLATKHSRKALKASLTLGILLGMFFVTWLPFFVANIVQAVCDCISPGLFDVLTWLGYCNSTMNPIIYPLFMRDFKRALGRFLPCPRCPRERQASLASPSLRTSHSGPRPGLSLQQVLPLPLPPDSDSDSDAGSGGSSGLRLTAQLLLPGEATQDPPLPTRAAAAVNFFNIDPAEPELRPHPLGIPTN
T5 sequence (P31645 whole entry): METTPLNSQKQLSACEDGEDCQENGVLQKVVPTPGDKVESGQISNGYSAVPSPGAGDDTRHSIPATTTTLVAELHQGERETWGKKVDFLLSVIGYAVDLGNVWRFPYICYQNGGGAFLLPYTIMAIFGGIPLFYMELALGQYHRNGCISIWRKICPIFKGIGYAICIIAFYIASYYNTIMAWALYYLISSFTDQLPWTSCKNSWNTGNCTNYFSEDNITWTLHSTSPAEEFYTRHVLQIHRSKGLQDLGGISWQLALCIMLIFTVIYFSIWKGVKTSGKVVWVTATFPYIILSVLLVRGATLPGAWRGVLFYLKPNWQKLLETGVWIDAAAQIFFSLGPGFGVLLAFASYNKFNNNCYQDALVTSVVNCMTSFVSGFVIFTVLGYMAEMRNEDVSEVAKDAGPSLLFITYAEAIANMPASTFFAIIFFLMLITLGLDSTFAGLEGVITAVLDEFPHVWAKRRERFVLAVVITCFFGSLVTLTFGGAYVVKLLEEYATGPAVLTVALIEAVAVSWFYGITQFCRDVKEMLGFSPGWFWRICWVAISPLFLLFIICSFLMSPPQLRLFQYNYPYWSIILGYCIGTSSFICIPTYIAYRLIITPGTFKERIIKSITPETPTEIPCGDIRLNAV
T4 sequence (P34969 whole entry): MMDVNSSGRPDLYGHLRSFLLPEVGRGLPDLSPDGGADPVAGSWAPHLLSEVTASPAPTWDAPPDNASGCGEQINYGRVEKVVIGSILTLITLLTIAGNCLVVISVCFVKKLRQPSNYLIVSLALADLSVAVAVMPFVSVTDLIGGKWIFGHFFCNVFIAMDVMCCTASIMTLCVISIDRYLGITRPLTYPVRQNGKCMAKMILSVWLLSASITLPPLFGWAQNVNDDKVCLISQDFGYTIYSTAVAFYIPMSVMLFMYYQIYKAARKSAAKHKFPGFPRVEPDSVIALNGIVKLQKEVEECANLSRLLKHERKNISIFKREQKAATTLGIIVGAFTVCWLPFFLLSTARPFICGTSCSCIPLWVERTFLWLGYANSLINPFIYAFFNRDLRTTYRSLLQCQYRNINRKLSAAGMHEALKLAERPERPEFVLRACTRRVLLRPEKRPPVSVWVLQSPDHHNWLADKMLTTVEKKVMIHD
T2 sequence (P28223 whole entry): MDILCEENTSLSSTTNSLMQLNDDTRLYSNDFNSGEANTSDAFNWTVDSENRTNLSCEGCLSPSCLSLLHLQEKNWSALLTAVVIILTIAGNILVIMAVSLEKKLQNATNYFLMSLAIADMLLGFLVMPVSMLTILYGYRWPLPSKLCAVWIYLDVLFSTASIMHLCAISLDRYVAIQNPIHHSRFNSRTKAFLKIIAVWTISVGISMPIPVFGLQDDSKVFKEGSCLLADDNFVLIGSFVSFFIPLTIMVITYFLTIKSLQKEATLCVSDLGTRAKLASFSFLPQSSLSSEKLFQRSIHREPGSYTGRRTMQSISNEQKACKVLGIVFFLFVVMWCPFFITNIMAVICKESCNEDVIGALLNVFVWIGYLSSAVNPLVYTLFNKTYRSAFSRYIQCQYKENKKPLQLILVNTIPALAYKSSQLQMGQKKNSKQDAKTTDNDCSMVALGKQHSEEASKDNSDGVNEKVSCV
Chain of dopaminergic receptors D2 (P14416 whole entry): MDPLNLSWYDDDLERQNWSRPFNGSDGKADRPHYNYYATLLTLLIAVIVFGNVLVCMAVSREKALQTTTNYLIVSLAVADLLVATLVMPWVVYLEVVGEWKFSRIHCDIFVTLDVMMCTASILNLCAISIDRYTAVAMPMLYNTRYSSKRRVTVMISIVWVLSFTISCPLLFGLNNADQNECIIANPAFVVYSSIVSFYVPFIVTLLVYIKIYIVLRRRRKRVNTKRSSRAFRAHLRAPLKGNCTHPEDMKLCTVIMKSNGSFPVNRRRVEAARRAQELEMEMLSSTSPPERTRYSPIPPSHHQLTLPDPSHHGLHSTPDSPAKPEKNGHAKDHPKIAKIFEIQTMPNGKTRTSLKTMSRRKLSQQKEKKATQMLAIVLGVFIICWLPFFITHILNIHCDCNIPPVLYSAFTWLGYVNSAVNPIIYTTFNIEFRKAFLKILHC

Structure (SMILES)	inhibition at 1 µM [1] [%]	inhibition at 1 µM [2] [%]	inhibition at 1 µM [3] [%]	inhibition at 1 µM (5-HT2A receptor) [%]	inhibition at 1 µM (5-HT6 receptor) [%]	inhibition at 1 µM (5-HT7 receptor) [%]	inhibition at 1 µM [4] [%]	D2 [%] [1] [%]	D3 [%] [2] [%]	5-HT1A [%] [3] [%]	5-HT2A [%] (5-HT2A receptor)	5-HT6 [%] (5-HT6 receptor)	5-HT7 [%] (5-HT7 receptor)	SERT [%] [4] [%]
O=S(=O)(NCC1CCN(CCCc2noc3cc(F)ccc23)C1)c1cc2ccccc2o1 (stereo not drawn) [Compound 257, N-[[1-[3-(6-Fluoro-1,2-benzoxazol-3-yl)propyl]pyrrolidin-3-yl]methyl]-benzofuran-2-sulphonamide]	92	62	87	100	94	88	20	–	–	–	–	–	–	–
O=S(=O)(NC1CCN(CCCc2noc3cc(F)ccc23)CC1)c1ccccc1 [Compound 32, N-[1-[3-(6-Fluoro-1,2-benzoxazol-3-yl)propyl]-4-piperidine]benzene-sulphonamide]	–	–	–	–	–	–	–	63	57	37	83	63	92	5
Cc1ccc(S(=O)(=O)NC2CCN(CCCc3noc4cc(F)ccc34)C2)cc1 (stereo not drawn) [Compound 209, N-[1-[3-(6-Fluoro-1,2-benzoxazol-3-yl)propyl]pyrrolidin-3-yl]-4-methyl-benzenesulphonamide]	64	34	11	86	62	90	6	–	–	–	–	–	–	–
COc1ccc(S(=O)(=O)NC2CCN(CCCc3noc4cc(F)ccc34)C2)cc1 (stereo not drawn) [Compound 213, N-[1-[3-(6-Fluoro-1,2-benzoxazol-3-yl)propyl]pyrrolidin-3-yl]-4-methoxybenzenesulphonamide]	81	57	63	100	78	93	12	–	–	–	–	–	–	–
COc1cccc(S(=O)(=O)NCC2CCN(CCCc3noc4cc(F)ccc34)C2)c1 (stereo not drawn) [Compound 250, N-[[1-[3-(6-Fluoro-1,2-benzoxazol-3-yl)propyl]pyrrolidin-3-yl]methyl]-3-methoxy-benzenesulphonamide]	18	55	30	87	74	91	23	–	–	–	–	–	–	–
Cn1ccc2c(S(=O)(=O)NC3CCN(CCCc4noc5cc(F)ccc45)C3)cccc21 (stereo not drawn) [Compound 219, N-[1-[3-(6-Fluoro-1,2-benzoxazol-3-yl)propyl]pyrrolidin-3-yl]-1-methyl-indole-4-sulphonamide]	96	81	85	99	94	96	52	–	–	–	–	–	–	–
O=S(=O)(NC1CCN(CCCc2noc3cc(F)ccc23)C1)c1ccc(Br)cc1 (stereo not drawn) [Compound 10, 4-Bromo-N-[1-[3-(6-fluoro-1,2-benzoxazol-3-yl)propyl]pyrrolidin-3-yl]benzenesulphonamide]	99	49	20	96	85	86	-2	–	–	–	–	–	–	–
CCCc1ccc(S(=O)(=O)NCC2CN(CCCc3noc4cc(F)ccc34)C2)cc1 [Compound 157, N-[[1-[3-(6-Fluoro-1,2-benzoxazol-3-yl)propyl]azetidin-3-yl]methyl]-4-propyl-benzenesulphonamide]	81	72	61	95	80	93	25	–	–	–	–	–	–	–
O=S(=O)(NCC1CCN(CCCc2noc3cc(F)ccc23)C1)c1ccc2c(c1)CCO2 (stereo not drawn) [Compound 256, N-[[1-[3-(6-Fluoro-1,2-benzoxazol-3-yl)propyl]pyrrolidin-3-yl]methyl]-2,3-dihydrobenzofuran-5-sulphonamide]	37	25	29	87	74	92	40	–	–	–	–	–	–	–
O=S(=O)(NCC1CN(CCCc2noc3cc(F)ccc23)C1)c1ccc(Cl)s1 [Compound 155, 5-Chloro-N-[[1-[3-(6-fluoro-1,2-benzoxazol-3-yl)propyl]azetidin-3-yl]methyl]thiophene-2-sulphonamide]	61	68	42	89	62	82	-12	–	–	–	–	–	–	–
O=S(=O)(NCC1CCN(CCCc2noc3cc(F)ccc23)C1)c1ccc(F)c(Cl)c1 (stereo not drawn) [Compound 263, 3-Chloro-4-fluoro-N-[[1-[3-(6-fluoro-1,2-benzoxazol-3-yl)propyl]pyrrolidin-3-yl]methyl]benzenesulphonamide]	59	71	19	97	85	92	11	–	–	–	–	–	–	–
O=S(=O)(NCC1CCN(CCCc2noc3cc(F)ccc23)C1)c1ccccc1 (stereo not drawn) [Compound 245, N-[[1-[3-(6-Fluoro-1,2-benzoxazol-3-yl)propyl]pyrrolidin-3-yl]methyl]benzenesulphonamide]	-4	40	35	73	57	81	18	–	–	–	–	–	–	–
CC(C)(C)c1ccc(S(=O)(=O)NCC2CN(CCCc3noc4cc(F)ccc34)C2)cc1 [Compound 141, 4-tert-Butyl-N-[[1-[3-(6-fluoro-1,2-benzoxazol-3-yl)propyl]azetidin-3-yl]methyl]benzenesulphonamide]	74	58	9	85	92	80	-10	–	–	–	–	–	–	–
O=S(=O)(NCC1CCN(CCCc2noc3cc(F)ccc23)C1)c1cccc(O)c1 (stereo not drawn) [Compound 254, N-[[1-[3-(6-Fluoro-1,2-benzoxazol-3-yl)propyl]pyrrolidin-3-yl]methyl]-3-hydroxy-benzenesulphonamide]	75	34	49	98	78	102	10	–	–	–	–	–	–	–
O=S(=O)(NCC1CN(CCCc2noc3cc(F)ccc23)C1)c1cccc(Cl)c1 [Compound 137, 3-Chloro-N-[[1-[3-(6-fluoro-1,2-benzoxazol-3-yl)propyl]azetidin-3-yl]methyl]benzenesulphonamide]	76	50	14	62	14	82	-5	–	–	–	–	–	–	–
